{
  "source": "patent US9976141B2",
  "about": "“Compositions and methods for inhibiting gene expression of Hif2alpha” (Arrowhead Madison Inc., priority 2015, dated 2018)",
  "note": "Strand notation (5' to 3'): a small letter for the sugar, then the base; units joined by * are phosphorothioate-linked, units joined directly phosphodiester-linked; [ ] holds rarer units or linkages, { } end groups; capitals alone tell only the bases. {Alk-SMPT-C6} = Alk-SMPT-C6 linker modification (publication code); [invdT] = inverted (3'-3') thymidine; d = 2'-deoxy (DNA); m = 2'-O-methyl; f = 2'-fluoro",
  "data": [
    {"system": "human (tumor) Hif2α (EPAS1) mRNA", "assay": "Hif2α knockdown in orthotopic RCC tumor bearing mice, single injection of RNAi trigger-delivery polymer conjugate, RT-qPCR (Table 7)", "assay_type": "in vivo", "conditions": "RNAi trigger 115 μg, polymer 100A 375 μg; single tail vein injection; relative to isotonic glucose", "outline": "(§1)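 Female athymic nude mice carried orthotopic A498-SEAP ccRCC kidney tumours, used 5–6 weeks after implantation. They received one tail-vein injection of RGD-targeted Hif2α RNAi trigger–polymer conjugate or isotonic glucose. Tumour Hif2α mRNA was measured by TaqMan RT-qPCR normalised to CycA (ΔΔCT) and expressed relative to glucose-treated mice.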", "values": [
      {"substance": "AD01476 (antisense dTfUmUfCmAfUmGfAmAfAmUfCmGfUmUfAmCfGmUdT*dT; sense ACGUAACGAUUUCAUGAAA; siRNA; sense: sugars from the 5' end fmfmfmfmfmfmfmfmfmf, [invdT] at 3' end, all phosphodiester, 5' {Alk-SMPT-C6}, methylation of C not given here; further chemistry not fully specified)", "Relative Expression day 4 (Hif2α mRNA in kidney tumor)": 0.32},
      {"substance": "AD01522 (antisense TUUCAUGAAAUCGUUACGUTT; sense ACGUAACGAUUUCAUGAAAT; Hif2alpha RNAi agent antisense strand; modified_base 2,4,6,8,10,14,16,18 /mod_base = “2′-deoxy-2′-fluoro corresponding nucleoside”; modified_base 3,5,7,9,11,12,13,15,17,19 /mod_base = “2′-O-methyl corresponding nucleoside”; modified_base 21 /mod_base = “5′-phosphorothioate corresponding nucleotide”; Hif2alpha RNAi agent sense strand; modified_base 1,3,5,7,8,9,11,13,15,17,19 /mod_base = “2′-deoxy-2′-fluoro corresponding nucleoside”; modified_base 2,4,6,10,12,14,16,18 /mod_base = “2′-O-methyl corresponding nucleoside”; modified_base 20 /mod_base = “3′-3′-linked nucleotide”; modified_base 1 /mo)", "Relative Expression day 4 (Hif2α mRNA in kidney tumor)": 0.44}
    ]},
    {"system": "human (tumor) Hif2α (EPAS1) mRNA", "assay": "Hif2α knockdown in orthotopic RCC tumor bearing mice, single injection of RNAi trigger-delivery polymer conjugate, RT-qPCR (Table 7)", "assay_type": "in vivo", "conditions": "RNAi trigger 150 μg, polymer 100A 300 μg; single tail vein injection; relative to isotonic glucose", "outline": "as §1", "values": [
      {"substance": "AD01406 (antisense TUUCAUGAAAUCGUUACGUCGGCUAU; sense UAUAUCGACGUAACGAUUUCAUGAAA; Hif2alpha RNAi agent antisense strand; modified_base 25 modified base = “2′-hydroxy corresponding nucleoside”; modified_base 2,4,6,10,12,14,16,18,20 /mod_base = “2′-deoxy-2′-fluoro corresponding nucleoside”; modified_base 3,5,7,9,11,13,15,17,19,21,22,23,24,26 /mod_base = “2′-O-methyl corresponding nucleoside”; modified_base 8 /mod_base = “2′-3′ seco corresponding nucleotide”; modified_base 2,24 /m; Hif2alpha RNAi agent sense strand; modified_base 2,4 modified base = “2′-hydroxy corresponding nucleoside”; modified_base 6,8,10,12,14,16,18,20,22,24,26 /mod_base = “2′-deoxy-2′-fluoro correspondi)", "Relative Expression day 4 (Hif2α mRNA in kidney tumor)": 0.45},
      {"substance": "AD01407 (antisense TUUCAUGAAAUCGUUACGUCGGCUAU; sense UAUAUCGACGUAACGAUUUCAUGAAA; Hif2alpha RNAi agent antisense strand; modified_base 25 modified base = “2′-hydroxy corresponding nucleoside”; modified_base 2,4,6,10,12,14,16,18,20 /mod_base = “2′-deoxy-2′-fluoro corresponding nucleoside”; modified_base 3,5,7,9,11,13,15,17,19,21,22,23,24,26 /mod_base = “2′-O-methyl corresponding nucleoside”; modified_base 8 /mod_base = “2′-3′ seco corresponding nucleotide”; modified_base 2,24 /m; Hif2alpha RNAi agent sense strand; modified_base 2,4 modified base = “2′-hydroxy corresponding nucleoside”; modified_base 6,8,10,12,14,16,18,20,22,24,26 /mod_base = “2′-deoxy-2′-fluoro correspondi)", "Relative Expression day 4 (Hif2α mRNA in kidney tumor)": 0.47},
      {"substance": "AD01408 (antisense TUUCAUGAAAUCGUUACGUCGGCUAU; sense UAUAUCGACGUAACGAUUUCAUGAAA; Hif2alpha RNAi agent antisense strand; modified_base 25 modified base = “2′-hydroxy corresponding nucleoside”; modified_base 2,4,6,8,10,12,14,16,18,20 /mod_base = “2′-deoxy-2′-fluoro corresponding nucleoside”; modified_base 3,5,7,11,13,15,17,19,21,22,23,24,26 /mod_base = “2′-O-methyl corresponding nucleoside”; modified_base 9 /mod_base = “2′-3′ seco corresponding nucleotide”; modified_base 2,3,23,; Hif2alpha RNAi agent sense strand; modified_base 2,4 modified base = “2′-hydroxy corresponding nucleoside”; modified_base 6,8,10,12,14,16,18,20,22,24,26 /mod_base = “2′-deoxy-2′-fluoro correspondi)", "Relative Expression day 4 (Hif2α mRNA in kidney tumor)": 0.50},
      {"substance": "AD01409 (antisense TUUCAUGAAAUCGUUACGUCGGCUAU; sense UAUAUCGACGUAACGAUUUCAUGAAA; Hif2alpha RNAi agent antisense strand; modified_base 25 modified base = “2′-hydroxy corresponding nucleoside”; modified_base 2,4,6,8,10,12,14,16,18,20 /mod_base = “2′-deoxy-2′-fluoro corresponding nucleoside”; modified_base 3,5,7,11,13,15,17,19,21,22,23,24,26 /mod_base = “2′-O-methyl corresponding nucleoside”; modified_base 9 /mod_base = “2′-3′ seco corresponding nucleotide”; modified_base 2,3,23,; Hif2alpha RNAi agent sense strand; modified_base 2,4 modified base = “2′-hydroxy corresponding nucleoside”; modified_base 6,8,10,12,14,16,18,20,22,24,26 /mod_base = “2′-deoxy-2′-fluoro correspondi)", "Relative Expression day 4 (Hif2α mRNA in kidney tumor)": 0.55},
      {"substance": "AD01410 (antisense TUUCAUGAAAUCGUUACGUCGGCUAU; sense UAUAUCGACGUAACGAUUUCAUGAAA; Hif2alpha RNAi agent antisense strand; modified_base 25 modified base = “2′-hydroxy corresponding nucleoside”; modified_base 2,4,6,8,10,12,14,16,18,20 /mod_base = “2′-deoxy-2′-fluoro corresponding nucleoside”; modified_base 3,5,7,11,13,15,17,19,21,22,23,24,26 /mod_base = “2′-O-methyl corresponding nucleoside”; modified_base 9 /mod_base = “2′-3′ seco corresponding nucleotide”; modified_base 2,24 /m; Hif2alpha RNAi agent sense strand; modified_base 2,4 modified base = “2′-hydroxy corresponding nucleoside”; modified_base 6,8,10,12,14,16,18,20,22,24,26 /mod_base = “2′-deoxy-2′-fluoro correspondi)", "Relative Expression day 4 (Hif2α mRNA in kidney tumor)": 0.41},
      {"substance": "AD01411 (antisense TUUCAUGAAAUCGUUACGUCGGCUAU; sense UAUAUCGACGUAACGAUUUCAUGAAA; Hif2alpha RNAi agent antisense strand; modified_base 25 modified base = “2′-hydroxy corresponding nucleoside”; modified_base 2,4,6,8,10,12,14,16,18,20 /mod_base = “2′-deoxy-2′-fluoro corresponding nucleoside”; modified_base 3,5,7,11,13,15,17,19,21,22,23,24,26 /mod_base = “2′-O-methyl corresponding nucleoside”; modified_base 9 /mod_base = “2′-3′ seco corresponding nucleotide”; modified_base 2,24 /m; Hif2alpha RNAi agent sense strand; modified_base 2,4 modified base = “2′-hydroxy corresponding nucleoside”; modified_base 6,8,10,12,14,16,18,20,22,24,26 /mod_base = “2′-deoxy-2′-fluoro correspondi)", "Relative Expression day 4 (Hif2α mRNA in kidney tumor)": 0.36},
      {"substance": "AD01424 (antisense TUUCAUGAAAUCGUUACGUCGGCUAU; sense UAUAUCGACGUAACGAUUUCAUGAAA; Hif2alpha RNAi agent antisense strand; modified_base 25 modified base = “2′-hydroxy corresponding nucleoside”; modified_base 2,4,6,8,10,12,14,16,18,20 /mod_base = “2′-deoxy-2′-fluoro corresponding nucleoside”; modified_base 3,5,7,11,13,15,17,19,21,22,23,24,26 /mod_base = “2′-O-methyl corresponding nucleoside”; modified_base 9 /mod_base = “2′-3′ seco corresponding nucleotide”; modified_base 2,3,23,; Hif2alpha RNAi agent sense strand; modified_base 2,4 modified base = “2′-hydroxy corresponding nucleoside”; modified_base 6,8,10,12,14,16,18,20,22,24 /mod_base = “2′-deoxy-2′-fluoro corresponding)", "Relative Expression day 4 (Hif2α mRNA in kidney tumor)": 0.54}
    ]}
  ]
}
